The source of these data is patent publication US20250092056A1, “URACIL DERIVATIVES HAVING VIRUS REPLICATION INHIBITORY ACTIVITY AND PHARMACEUTICAL COMPOSITION COMPRISING THE SAME” (Shionogi & Co., Ltd., priority 2022, published 2025).

Where two headings read alike, the source gives them in different places.

One assay concerns SARS-CoV-2. Nature of the assay: Cytopathic effect (CPE) suppression effect confirmation test using HEK293T/ACE2-TMPRSS2 cells. It is filed as cell-based. Particulars: Severe acute respiratory syndrome coronavirus 2, HEK-293T, 72 h. (Damage to the host cells serves as the signal in cytopathic effect assays.)
Assay [1] deals with Recombinant SARS-CoV-2 3CL Protease (Severe acute respiratory syndrome coronavirus 2 (2019-nCoV) (SARS-CoV-2), UniProt P0DTD1). Nature of the assay: biochemical. It is filed as biochemical. Particulars: 50% SARS-CoV-2 3CL protease inhibitory concentration; read-out: IC50.
Where [2] appears, read: read-out: EC50 (50% SARS-CoV-2 infected cell death inhibitory concentration), class, HEK293T/ACE2-TMPRSS2 cells, CPE suppression, CellTiter-Glo 2.0 after 3 days culture.
Setting [3] is: HEK293T/ACE2-TMPRSS2 cells, CPE suppression, CellTiter-Glo 2.0 after 3 days culture, read-out: EC50 (50% SARS-CoV-2 infected cell death inhibitory concentration), class.

For the molecule `Cc1cncc(-n2c(=O)c(Cc3cc(F)c(F)c(F)c3)c(N3CCC(C(N)=O)CC3)n(CC#N)c2=O)c1` [Compound I-112], the EC50 in the assay with SARS-CoV-2 (setting [2]) is 100 to 1000 nM. Also, in assay [1], the half-maximal inhibitory concentration (IC50) (in general, the concentration that inhibits the measured activity by half) was under 10 nM.
For `Cc1cncc(-n2c(=O)c(Cc3cc(F)c(F)c(F)c3)c(N3CCC4(CC3)CNC(=O)O4)n(CC#N)c2=O)c1` [Compound I-114] the same measures were 100 to 1000 nM and under 10 nM.
Take `Cc1cncc(-n2c(=O)c(Cc3cc(F)c(F)c(F)c3)c(N3CCC(O)(C(F)(F)F)CC3)n(CC#N)c2=O)c1` [Compound I-116]: the EC50 with SARS-CoV-2 (setting [2]) is under 100 nM. Further, the concentration for half-maximal inhibition (IC50) in assay [1] is under 10 nM.
As to `Cc1cncc(-n2c(=O)c(Cc3cc(F)c(F)c(F)c3)c(N3C[C@H]4CN(C)C[C@H]4C3)n(CC#N)c2=O)c1` [Compound I-117], in the assay with SARS-CoV-2 (setting [2]), the EC50 was under 100 nM. The half-inhibitory concentration (IC50) in assay [1] was under 10 nM.
As for `Cc1cncc(-n2c(=O)c(Cc3cc(F)c(F)c(F)c3)c(N3CCC(C(F)F)CC3)n(CC#N)c2=O)c1` [Compound I-118], in the assay on SARS-CoV-2 (setting [2]), the EC50 is under 100 nM. Besides, the half-maximal inhibitory concentration (IC50) in assay [1] was under 10 nM.
As to `Cc1cncc(-n2c(=O)c(Cc3cc(F)c(F)c(F)c3)c(N3CCC(C(F)(F)F)CC3)n(CC#N)c2=O)c1` [Compound I-119], the EC50 in the assay on SARS-CoV-2 (setting [2]) is under 100 nM. In assay [1], the half-inhibitory concentration (IC50) was under 10 nM.
For `Cc1cncc(-n2c(=O)c(-c3ccc(F)c(Cl)c3)c(-c3nc4ccccc4s3)n(CC#N)c2=O)c1` [Compound I-120] the same measures were under 100 nM and under 10 nM.
For `Cn1cnc(Cn2c(=O)c(-c3cccc(Cl)c3)c(N3Cc4ccccc4C3)n(CC#N)c2=O)n1` [Compound I-122], in the assay on SARS-CoV-2 (setting [2]), the EC50 fell in the range of 1000 to 5000 nM. Besides, in assay [1], the IC50 is over 100 nM.
In the same order, the values of `N#CCn1c(N2Cc3ccccc3C2)c(-c2cccc(Cl)c2)c(=O)n(Cc2ccc[nH]c2=O)c1=O` [Compound I-124] are under 100 nM and under 10 nM.
Turning to `N#CCn1c(Cl)c(-c2ccc(F)c(Cl)c2)c(=O)n(-c2cnc3cc(Cl)ccn23)c1=O` [Compound I-126], the EC50 in the assay with SARS-CoV-2 (setting [2]) was in the range of 1000 to 5000 nM. Besides, the IC50 in assay [1] was over 100 nM.
For `N#CCn1c(N2CC3(CCOC3)C2)c(Cc2cc(F)c(F)c(F)c2)c(=O)n(-c2cnc3cnccn23)c1=O` [Compound I-127] the same measures were 1000 to 5000 nM and over 100 nM.
With `N#CCn1c(N2CC3(CCOC3)C2)c(Cc2cc(F)c(F)c(F)c2)c(=O)n(-c2cnn3ccccc23)c1=O` [Compound I-128], in the assay on SARS-CoV-2 (setting [2]), the EC50 is 100 to 1000 nM. Also, the IC50 in assay [1] was over 100 nM.
Consider `N#CCn1c(N2CC3(CCOC3)C2)c(Cc2cc(F)c(F)c(F)c2)c(=O)n(-c2cnc3ccc(F)cn23)c1=O` [Compound I-129], for which the EC50 with SARS-CoV-2 (setting [3]) was 100 to 1000 nM. In addition, in assay [1], the half-inhibitory concentration (IC50) was 10 to 100 nM.
Consider `N#CCn1c(N2CC3(CCOC3)C2)c(-c2ccc(F)c(Cl)c2)c(=O)n(-c2cnc3ccc(F)cn23)c1=O` [Compound I-130], for which the EC50 in the assay with SARS-CoV-2 (setting [2]) was under 100 nM. For the same molecule, in assay [1], the IC50 is under 10 nM.
In the same order, the values of `N#CCn1c(N2CC3(CCOC3)C2)c(-c2ccc(F)c(Cl)c2)c(=O)n(-c2cnc3cc(Cl)ccn23)c1=O` [Compound I-131] are under 100 nM and under 10 nM.
On to `Cc1cncc(-n2c(=O)c(-c3ccc(F)c(Cl)c3)c(-c3nc4ccccc4o3)n(CC#N)c2=O)c1` [Compound I-132], for which the EC50 in the assay on SARS-CoV-2 (setting [2]) was under 100 nM. The IC50 in assay [1] is under 10 nM.
Consider `CC(C)(O)C1CN(c2c(-c3ccc(F)c(Cl)c3)c(=O)n(-c3cnc4cc(Cl)ccn34)c(=O)n2CC#N)C1` [Compound I-133], for which the EC50 in the assay with SARS-CoV-2 (setting [3]) was under 100 nM. Further, the IC50 in assay [1] was 10 to 100 nM.
Take `N#CCn1c(N2CC3(CC3)C2)c(-c2ccc(F)c(Cl)c2)c(=O)n(-c2cnc3cc(Cl)ccn23)c1=O` [Compound I-134]: the EC50 with SARS-CoV-2 (setting [2]) is under 100 nM. The IC50 in assay [1] is under 10 nM.
As to `N#CCn1c(N2CC(O)(C(F)(F)F)C2)c(-c2ccc(F)c(Cl)c2)c(=O)n(-c2cnc3cc(Cl)ccn23)c1=O` [Compound I-135], the EC50 in the assay on SARS-CoV-2 (setting [3]) is under 100 nM. The IC50 in assay [1] fell in the range of 10 to 100 nM.
